From EP2689847A1, “Methods for catalytic alkylation of nucleic acids” (Universität Basel, priority 2012, dated 2014)

Assay: water solubility of α-diazocarbonyl substrates under the conditions of the oligonucleotide modification reaction
Format: physicochemical
Conditions: aqueous reaction mixture, 100 mM MES buffer, pH 6.0, 50 mM α-diazocarbonyl compound
Description: A number of a-diazocarbonyl substrates were screened as potential candidates for the target reaction of oligonucleotide modification (Table 4). […] Increasing the bulkiness of the ester moiety appeared to have a negative effect on the yields of modified oligonucleotide as for entry 2 the efficacy of modification was reduced twice in comparison to the methyl ester counterpart (entry 1) and with the compound from entry 7 only trace amounts of modified oligonucleotide were isolated.
General procedure for Rh2(OAc)4-catalyzed oligonucleotide modification using a-diazocarbonyl compounds. Typically […] reaction mixtures containing 5 mM oligonucleotide, […] Rh2(OAc)4 and 50 mM a-diazocarbonyl compound in 100 mM MES buffer, pH 6.0 were kept at 20 °C for 24-72 h. Analysis of the reaction products was carried out by micropreparative HPLC-separation of 5-ml aliquots of the reaction mixtures using method A. The collected peak fractions were further assessed by ESI-MS or MALDI TOF.

| water solubility under the conditions of the analysis | SMILES |
| --- | --- |
| sufficiently water-soluble | COC(=O)C(=[N+]=[N-])c1ccc(CN(C)C)cc1 [Dz-1, Methyl 2-diazo-2-(4-((dimethylamino)methyl)phenyl)acetate] |
| sufficiently water-soluble | C#CCN1CCN(CCOCCOCCOCCN2CCN(Cc3ccc(C(=[N+]=[N-])C(=O)OC)cc3)CC2)CC1 [Dz-2, Methyl2-diazo-2-(4-((4-(2-(2-(2-(2-(4-(prop-2-yn-1-yl)piperazin-1-yl)ethoxy)ethoxy)ethoxy)ethyl)piperazin-1-yl)methyl)phenyl)acetate] |
| sufficiently water-soluble | CCOC(=O)C(=[N+]=[N-])c1ccc(CN(C)C)cc1 [entry 2] |
